Test results reported in ChEMBL document CHEMBL1133185, “Inhibition of clinically relevant mutant variants of HIV-1 by quinazolinone non-nucleoside reverse transcriptase inhibitors” (J Med Chem, 2000).

Tests used:
[1] = test system: Human immunodeficiency virus 1; assay: Antiviral activity toward K103N mutant HIV-1 virus as protein binding adjusted (PB adj).; format: functional
[2] = molecular target: Human immunodeficiency virus type 1 reverse transcriptase (Human immunodeficiency virus 1, UniProt Q72547); assay: Inhibition of HIV-1 reverse transcriptase.
[3] = test system: Human immunodeficiency virus 1; assay: Antiviral activity was evaluated for the inhibition of wild-type RF strain of HIV-1 in an in vitro enzyme assay.; format: functional
[4] = test system: Human immunodeficiency virus 1; assay: Antiviral activity against HIV-1 K103N mutant virus.; format: functional
[5] = test system: Human immunodeficiency virus 1; assay: In vitro antiviral activity against HIV-1 (L100I).; format: functional
[6] = molecular target: Human immunodeficiency virus type 1 reverse transcriptase (Human immunodeficiency virus 1) (UniProt Q72547); details: Plasma
Description: Effect of human plasma protein binding on antiviral efficacy.

[7] = test system: Human immunodeficiency virus 1; assay: Compound was evaluated for the inhibition of wilde-type RF strain of HIV-1; format: functional
[8] = molecular target: Human immunodeficiency virus type 1 reverse transcriptase (Human immunodeficiency virus 1) (UniProt Q72547); assay: Compound was evaluated for the inhibition of HIV-1 Reverse transcriptase
[9] = test system: Human immunodeficiency virus 1; assay: Compound was evaluated for antiviral activity against L100I mutant virus; format: functional
MT2 [10] = assay: Antiviral activity against E, Zidovudine resistant clinical strain of HIV in MT-2 cells by yield assay; format: functional; details: Homo sapiens
[11] = test system: Human immunodeficiency virus 1; assay: Plasma Potency against Mutant HIV-1 K103N; format: functional; details: Human immunodeficiency virus 1, Plasma
[12] = test system: Human immunodeficiency virus 1; assay: Calculated Potency against Mutant HIV-1 sV179D/L100I/Y181C; format: functional
[13] = test system: Human immunodeficiency virus 1; assay: Plasma Potency against Mutant HIV-1 sL100I; format: functional; details: Human immunodeficiency virus 1, Plasma
MT2 [14] = assay: Protein Binding was evaluated by PB shift in MT-2 by RNA assay; format: functional; details: Homo sapiens
MT2 [15] = assay: Antiviral activity against HIV-2 in MT-2 cells by yield assay; format: functional; details: Homo sapiens
[16] = test system: Human immunodeficiency virus 1; assay: Plasma antiviral activity was evaluated for RF strain of HIV-1; format: functional
Homo sapiens [17] = species on record: Homo sapiens; assay: (§1) percentage of the free compound in tissue culture medium; format: functional
[18] = test system: Human immunodeficiency virus 1; assay: Antiviral activity against Thai 9466, a wild-type clinical strain of HIV in PBMC by P24 assay; format: functional
[19] = test system: Human immunodeficiency virus 1; assay: Potency against Mutant HIV-1 sL100I; format: functional
Homo sapiens [20] = species on record: Homo sapiens; assay: (§2) percentage of the free compound in human serum; format: functional
[21] = test system: Human immunodeficiency virus 1; assay: Plasma Potency against Mutant HIV-1 sV179D/L100I/Y181C; format: functional
[22] = test system: Human immunodeficiency virus 1; assay: Calculated Potency against Mutant HIV-1 sL100I; format: functional
[23] = test system: Human immunodeficiency virus 1; assay: Potency against Mutant HIV-1 K103N; format: functional
[24] = test system: Human immunodeficiency virus 1; assay: Calculated Potency against Mutant HIV-1 K103N; format: functional
MT2 [25] = assay: Antiviral activity against RF strain of HIV in MT-2 cells by yield assay; format: functional; details: Homo sapiens
[26] = test system: Human immunodeficiency virus 1; assay: Potency against Mutant HIV-1 sV179D/L100I/Y181C; format: functional
MT2 [27] = assay: Antiviral activity against RF strain of HIV in MT-2 cells by RNA assay; format: functional; details: Homo sapiens
[28] = test system: Human immunodeficiency virus 1; assay: Compound was evaluated for the inhibition of wide-type RF strain of HIV-1; format: functional
[29] = test system: Human immunodeficiency virus 1; assay: Antiviral activity against A018C, Zidovudine resistant clinical strain of HIV in PBMC by P24 assay; format: functional
Homo sapiens [30] = species on record: Homo sapiens; assay: as §2; format: cell-free
Homo sapiens [31] = species on record: Homo sapiens; assay: as §1

SMILES | IC90 [1] [nM] | IC50 [2] [nM] | IC90 [3] [nM] | IC90 ([4]; Human immunodeficiency virus 1) [nM] | IC90 [5] [nM] | IC90 [6] [nM] | also measured
O=C1Nc2ccc(F)cc2[C@@](C#Cc2ccccn2)(C(F)(F)F)N1 | 3140 | 126 | 5 | 483 | 255 | 33 | –
O=C1Nc2ccc(F)c(F)c2[C@](C#CC2CC2)(C(F)(F)F)N1 | – | – | – | – | – | – | IC90 [7]: 101 nM; IC90 [8]: 6600 nM
CC(C)C#C[C@]1(C(F)(F)F)NC(=O)Nc2ccc(F)c(Cl)c21 | 74 | 78 | 3 | 15 | 13 | 15 | –
O=C1Nc2ccc(Cl)cc2[C@@](C#CC2CC2)(C(F)(F)F)N1 (stereo in doubt) | – | – | – | – | – | – | IC90 [8]: 31 nM
CCC#C[C@]1(C(F)(F)F)NC(=O)Nc2ccc(F)cc21 | 710 | 54 | 2.5 | 71 | – | 25 | IC90 [9]: 74 nM
CCC#C[C@]1(C(F)(F)F)NC(=O)Nc2ccc(Cl)cc21 | 826 | 110 | 3.3 | 26 | – | 83 | –
COc1ccc2c(c1)[C@@](C#Cc1ccccc1)(C(F)(F)F)NC(=O)N2 | 3590 | 219 | 3.2 | 283 | 462 | 42 | –
CC(C)Nc1cccnc1N1CCN(C(=O)c2cc3cc(NS(C)(=O)=O)ccc3[nH]2)CC1 [DELAVIRDINE] | 38000 | – | 37 | 1000 | – | – | –
CC(C)C#C[C@]1(C(F)(F)F)NC(=O)Nc2ccc(F)c(F)c21 (stereo in doubt; 20) [listing 1 of 2 here] | – | – | – | – | – | 21 | –
O=C1Nc2ccc(Cl)c(F)c2[C@@](C#CC2CC2)(C(F)(F)F)N1 | 151 | 102 | 4.8 | 18 | – | 40 | –
CC(C)C#C[C@@]1(C(F)(F)F)NC(=O)Nc2ccc(F)c(F)c21 | – | – | – | – | – | – | IC90 [7]: 229 nM; IC90 [8]: 1520 nM
O=C1Nc2ccc(Cl)cc2[C@@](/C=C/C2CC2)(C(F)(F)F)N1 | – | – | – | – | – | – | IC90 (MT2 [10]): 1.3 nM; IC90 [11]: 550 nM; IC90 [12]: 120 nM; IC90 [13]: 220 nM; IC90 (MT2 [14]): 3.7 nM; IC90 (MT2 [15]): > 2800 nM; IC90 [16]: 40 nM; Free (Homo sapiens [17]): 39%; IC90 [18]: 0.9 nM; IC90 [19]: 11 nM; Free (Homo sapiens [20]): 2%; IC90 [21]: 6000 nM; IC90 [22]: 4.3 nM; IC90 [23]: 27 nM; IC90 [24]: 11 nM; IC90 (MT2 [25]): 1.9 nM; IC90 [26]: 320 nM; IC90 (MT2 [27]): 2.1 nM
O=C1Nc2cccc(F)c2[C@@](C#CC2CC2)(C(F)(F)F)N1 | 917 | 62 | 1.4 | 89 | 108 | 14 | –
O=C1Nc2ccc(Cl)cc2[C@@](C#CC2CC2)(C(F)(F)F)N1 (stereo in doubt; 14) [listing 1 of 2 here] | – | – | – | – | – | 41 | –
O=C1Nc2ccc(F)c(F)c2[C@@](C#CC2CC2)(C(F)(F)F)N1 (stereo in doubt; 13) [listing 1 of 2 here] | – | – | – | – | – | 19 | –
O=C1Nc2ccc(Cl)c(Cl)c2[C@@](C#CC2CC2)(C(F)(F)F)N1 | 196 | 166 | 8 | 18 | – | 88 | –
O=C1Nc2ccc(F)c(F)c2[C@@](C#CC2CC2)(C(F)(F)F)N1 (stereo in doubt) [listing 1 of 2 here] | – | – | – | – | – | – | IC90 (MT2 [10]): 1.7 nM; IC90 [11]: 140 nM; IC90 [12]: 41 nM; IC90 [13]: 110 nM; IC90 (MT2 [14]): 6.9 nM; IC90 (MT2 [15]): > 950 nM; IC90 [28]: 1.3 nM; IC90 [16]: 18 nM; IC90 [18]: 1.9 nM; IC90 [19]: 8 nM; IC90 [29]: 1.6 nM; IC90 [4]: 11 nM; IC90 [21]: 1460 nM; IC90 [22]: 3 nM; IC90 [23]: 11 nM; IC90 [24]: 4 nM; IC90 (MT2 [25]): 2.3 nM; IC90 [26]: 110 nM; IC90 (MT2 [27]): 1.3 nM
CC(C)C#C[C@]1(C(F)(F)F)NC(=O)Nc2ccc(F)cc21 | 891 | 39 | 2.6 | 27 | 17 | 86 | –
O=C1Nc2ccc(F)c(F)c2[C@@](C#CC2CC2)(C(F)(F)F)N1 (stereo in doubt; 13) [listing 2 of 2 here] | 119 | 74 | 2.1 | 13 | 12 | – | –
O=C1Nc2ccc(Cl)cc2[C@@](C#CC2CC2)(C(F)(F)F)N1 (stereo in doubt; 14) [listing 2 of 2 here] | 336 | 111 | 2.7 | – | 18 | – | IC90 [4]: 22 nM

SMILES | IC90 [1] [nM] | IC50 [2] [nM] | IC90 [3] [nM] | IC90 ([4]; Human immunodeficiency virus 1) [nM] | IC90 [5] [nM] | IC90 [6] [nM] | also measured
O=C1Nc2ccc(F)c(F)c2[C@@](C#Cc2ccccn2)(C(F)(F)F)N1 | 1310 | 68 | 2 | 109 | 37 | 24 | –
O=C1Nc2ccc(F)c(F)c2[C@@](C#CC2CC2)(C(F)(F)F)N1 (stereo in doubt) [listing 2 of 2 here] | – | – | – | – | – | – | Free (Homo sapiens [30]): 2.8%; IC90 [8]: 18 nM; Free (Homo sapiens [31]): 37%
CC(C)C#C[C@]1(C(F)(F)F)NC(=O)Nc2ccc(F)c(F)c21 (stereo in doubt; 20) [listing 2 of 2 here] | 139 | 91 | 2.1 | 14 | 10 | – | –
O=C1Nc2ccc(Cl)cc2[C@@](C#Cc2ccccc2)(C(F)(F)F)N1 | 3000 | 277 | 7.1 | 250 | 365 | 86 | –
O=C1Nc2cccc(Cl)c2[C@@](C#CC2CC2)(C(F)(F)F)N1 | 441 | 72 | 2.5 | 63 | 70 | 18 | –
O=C1Nc2ccc(F)c(F)c2[C@@](/C=C/C2CC2)(C(F)(F)F)N1 | – | – | – | – | – | – | IC90 (MT2 [10]): 2.9 nM; IC90 [11]: 370 nM; IC90 [12]: 130 nM; IC90 [13]: 100 nM; IC90 (MT2 [14]): 3.5 nM; IC90 (MT2 [15]): > 2800 nM; IC90 [16]: 33 nM; IC90 [19]: 5.9 nM; Free (Homo sapiens [30]): 3%; IC90 [21]: 4300 nM; IC90 [22]: 3.1 nM; IC90 [23]: 21 nM; Free (Homo sapiens [31]): 53%; IC90 [24]: 11 nM; IC90 (MT2 [25]): 2.7 nM; IC90 [26]: 250 nM; IC90 (MT2 [27]): 2 nM
Cc1ccnc2c1NC(=O)c1cccnc1N2C1CC1 [NEVIRAPINE] | 10200 | – | 50 | 5100 | – | 100 | –
CC(C)C#C[C@]1(C(F)(F)F)NC(=O)Nc2ccc(F)c(F)c21 (stereo in doubt; 37) [listing 1 of 2 here] | – | – | – | – | – | – | IC90 [7]: 1.6 nM; IC90 [4]: 9 nM
COc1ccc2c(c1)[C@@](C#CC(C)C)(C(F)(F)F)NC(=O)N2 | 599 | 401 | 3.8 | 56 | 28 | 42 | –
O=C1Nc2ccc(F)c(Cl)c2[C@@](C#CC2CC2)(C(F)(F)F)N1 | 178 | 59 | 2.7 | 18 | 16 | 27 | –
O=C1Nc2ccc(F)c(F)c2[C@@](C#Cc2ccccc2)(C(F)(F)F)N1 | 1340 | 181 | 6.2 | 191 | 256 | 43 | –
CC(C)C#C[C@]1(C(F)(F)F)NC(=O)Nc2ccc(Cl)cc21 | 653 | 281 | 3 | 22 | 28 | 90 | –
O=C1Nc2ccc(Cl)cc2[C@](C#CC2CC2)(C(F)(F)F)N1 | – | – | – | – | – | – | IC90 [7]: 34000 nM; IC90 [8]: 267 nM
CC(C)C#C[C@]1(C(F)(F)F)NC(=O)Nc2ccc(F)c(F)c21 (stereo in doubt; 37) [listing 2 of 2 here] | – | – | – | – | – | – | IC90 [8]: 15 nM
COc1ccc2c(c1)[C@@](C#Cc1ccccn1)(C(F)(F)F)NC(=O)N2 | 5880 | 237 | 8.1 | 338 | 98 | 138 | –
O=C1Nc2ccc(Cl)cc2[C@@](C#Cc2ccccn2)(C(F)(F)F)N1 | 3730 | 129 | 3.4 | 160 | 64 | 79 | –
COc1ccc2c(c1)[C@@](C#CC1CC1)(C(F)(F)F)NC(=O)N2 | 396 | 124 | 2.9 | 40 | 46 | 29 | –
O=C1Nc2ccc(F)cc2[C@@](C#CC2CC2)(C(F)(F)F)N1 | 566 | 50 | 2 | 48 | 29 | 24 | –
O=C1Nc2ccc(F)cc2[C@@](C#Cc2ccccc2)(C(F)(F)F)N1 | 3220 | 143 | 6.6 | 322 | 677 | 66 | –
